Where “and” joins values, the source holds several entries; their conditions need not be identical. Identical values can stand only once.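 Test compounds were applied to cells in 96-well plates for 48 hours at 5 doses. Abbreviation: GI50, concentration required for 50% inhibition of growth. TGI: concentration producing complete growth inhibition.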

The values that follow come from PubChem BioAssay (NCI).

Some test systems named below: NCI-H460 lung; M14 melanoma; KM12 colon; SNB-19 CNS; LOX IMVI melanoma; HL-60(TB) leukemia; SNB-75 CNS; HT29 colon; CCRF-CEM leukemia; HOP-92 NSCLC.
Common to all, as to experiment: NCI anticancer screen, dose series, 48 h

`CC(C)(Cc1ccccc1)N1C(=O)N1C(C)(C)Cc1ccccc1`: the TGI in the test on NCI-H460 lung was above 100 µM; in the test on M14 melanoma it was above 100 µM; with KM12 colon, above 100 µM; in the test on SNB-19 CNS, above 100 µM; in the test on LOX IMVI melanoma, 33.6 µM; with HL-60(TB) leukemia it was 41.7 µM. Besides, the TGI in the test on SNB-75 CNS was above 100 µM; in the test with HT29 colon, 32.9 µM; with CCRF-CEM leukemia it was 61.3 µM.

As to `CC1(C)[C@@H](OC(N)=O)C=C[C@]2(CO)[C@H]3CC[C@]4(C)[C@@H](c5ccc(=O)oc5)[C@@H](Cl)C[C@]4(O)C3=CC[C@@H]12`, the GI50 in the test with NCI-H460 lung was below 0.0001 µM; in the test on M14 melanoma, 0.0131 µM; with HOP-92 NSCLC, 0.00862 µM; in the test on KM12 colon, 0.00456 µM; with SNB-19 CNS, 0.00887 µM and 0.0025 µM; in the test with LOX IMVI melanoma it was 0.00209 µM. The values for the GI50 in the test with HT29 colon and in the test on CCRF-CEM leukemia were 0.0024 µM and below 0.0001 µM, respectively. For the same compound, the TGI in the test with NCI-H460 lung is 0.00128 µM; with M14 melanoma it was 0.0297 µM; in the test with HOP-92 NSCLC, 0.0513 µM; in the test on KM12 colon it was 0.0268 µM; in the test on SNB-19 CNS it was 0.0228 µM and 0.0461 µM; in the test on LOX IMVI melanoma it was 0.0106 µM. Further, the TGI with HT29 colon came to 0.0154 µM; in the test with CCRF-CEM leukemia, 0.0131 µM.

As to `C[C@]12CC[C@H]3[C@@H](CCC4=C(Br)C(=O)C=C[C@@]43O)[C@@H]1CCC2=O`, the TGI in the test on NCI-H460 lung is 63.4 µM; with M14 melanoma, above 100 µM; in the test with HOP-92 NSCLC, 75.9 µM; in the test with KM12 colon it was above 100 µM; in the test on SNB-19 CNS, above 100 µM; in the test on LOX IMVI melanoma it was above 100 µM. The TGI in the test on HL-60(TB) leukemia was 81.6 µM; with HT29 colon it was above 100 µM; in the test on CCRF-CEM leukemia, 31.7 µM.

Turning to `Cn1ccc2c(c1=O)C(=O)OC2(C)C`, the TGI in the test on NCI-H460 lung, with M14 melanoma, with KM12 colon, in the test with SNB-19 CNS, in the test with LOX IMVI melanoma and with HL-60(TB) leukemia was above 100 µM each time. Moreover, the TGI with SNB-75 CNS, in the test with HT29 colon and with CCRF-CEM leukemia was above 100 µM in each case.

`O=NN1CCCS1(=O)=O`: the TGI in the test with NCI-H460 lung, in the test with M14 melanoma, in the test with KM12 colon, in the test with SNB-19 CNS, in the test with LOX IMVI melanoma and in the test with HL-60(TB) leukemia was above 100 µM throughout. Besides, the TGI in the test with SNB-75 CNS, in the test with HT29 colon and in the test on CCRF-CEM leukemia was above 100 µM each time.

Turning to `COc1cccc(NC(=O)CC(=O)N2N=C(C)C(N=Nc3ccc(C(=O)O)cc3)C2=O)c1` (stereo not given), the TGI is above 100 µM with M14 melanoma; above 100 µM in the test with KM12 colon; above 100 µM in the test on SNB-19 CNS; above 100 µM in the test on LOX IMVI melanoma; above 100 µM in the test with HL-60(TB) leukemia; 45.1 µM in the test with SNB-75 CNS. Also, the TGI in the test on HT29 colon and with CCRF-CEM leukemia was above 100 µM each time.

In the case of `COc1cc2oc(=O)cc(C)c2cc1OC`, the TGI with M14 melanoma, in the test with KM12 colon, in the test on SNB-19 CNS, with LOX IMVI melanoma, with SNB-75 CNS and in the test with HT29 colon was above 100 µM throughout. The same compound yielded a TGI in the test with CCRF-CEM leukemia above 100 µM.

As for `CCC1(OC(=O)CN)C(=O)OCc2c1cc1n(c2=O)Cc2cc3cc4c(cc3nc2-1)OCO4` (stereo not given), the GI50 is below 0.01 µM with NCI-H460 lung; 0.126 µM and 0.187 µM with KM12 colon; below 0.01 µM in the test with SNB-19 CNS; below 0.01 µM with LOX IMVI melanoma; below 0.01 µM in the test on HL-60(TB) leukemia; 0.0207 µM and < 0.01 µM in the test with SNB-75 CNS. The GI50 in the test on HT29 colon is 0.0245 µM and 0.0171 µM; in the test with CCRF-CEM leukemia, below 0.01 µM. Moreover, the TGI in the test with NCI-H460 lung is 0.0159 µM and 0.0389 µM; in the test on SNB-19 CNS it was 27.3 µM and 3.14 µM; with LOX IMVI melanoma it was 0.155 µM and 0.106 µM; in the test with HT29 colon, 0.739 µM and 0.281 µM.

Regarding `COc1cc2oc(=O)cc(C)c2c(OC)c1OC(C)=O`, the TGI in the test with M14 melanoma, with KM12 colon, with SNB-19 CNS, in the test with LOX IMVI melanoma, with SNB-75 CNS and in the test on HT29 colon was above 100 µM throughout. The same compound came in with a TGI in the test with CCRF-CEM leukemia above 100 µM.

In the case of `CC(=O)NC(=O)NC1=NCCC(=O)N1CCc1c[nH]c2ccccc12`, the TGI in the test on NCI-H460 lung, in the test on M14 melanoma, in the test with HOP-92 NSCLC, with KM12 colon, with SNB-19 CNS and in the test on LOX IMVI melanoma was above 100 µM each time. Also, the TGI with HL-60(TB) leukemia, in the test with HT29 colon and in the test with CCRF-CEM leukemia was above 100 µM in each case.

Turning to `Nn1c(Sc2nc3ccccc3c(=O)n2N)nc2ccccc2c1=O`, the TGI with NCI-H460 lung was 51.7 µM; in the test with M14 melanoma it was 4.02 µM; in the test on HOP-92 NSCLC it was 29.3 µM; with KM12 colon, above 62.3 µM; in the test with SNB-19 CNS it was 24.6 µM; in the test on LOX IMVI melanoma, 4.25 µM. Besides, the TGI was determined as 34.8 µM with SNB-75 CNS, 14.3 µM with HT29 colon and 4.51 µM in the test with CCRF-CEM leukemia.

Take `O=c1oc2cccnc2n1CCCCN1CCN(c2ccccc2)CC1`: the TGI in the test on NCI-H460 lung, with M14 melanoma, in the test on HOP-92 NSCLC, with SNB-19 CNS, with LOX IMVI melanoma and in the test on HL-60(TB) leukemia was above 100 µM in each case. For the same compound, the TGI with HT29 colon and in the test with CCRF-CEM leukemia was above 100 µM throughout.

Consider `O=C1c2ccccc2C(=O)c2nn(N=P(CP(=Nn3nc4c(n3)C(=O)c3ccccc3C4=O)(c3ccccc3)c3ccccc3)(c3ccccc3)c3ccccc3)nc21`, for which the TGI in the test on NCI-H460 lung, in the test on M14 melanoma, with HOP-92 NSCLC, in the test on KM12 colon, in the test with SNB-19 CNS and in the test with LOX IMVI melanoma was above 100 µM throughout. Moreover, the TGI in the test with HL-60(TB) leukemia, in the test on HT29 colon and in the test on CCRF-CEM leukemia was above 100 µM throughout.

Consider `Cn1c2ccc(C3=NCCN3)cc2c2cc(C3=NCCN3)ccc21`, for which the TGI in the test with NCI-H460 lung was 25.9 µM; in the test on M14 melanoma, above 100 µM; in the test on HOP-92 NSCLC, 63.7 µM; in the test on KM12 colon, above 100 µM; in the test with SNB-19 CNS, above 100 µM; in the test on LOX IMVI melanoma it was above 100 µM. The TGI is above 100 µM with SNB-75 CNS, above 100 µM in the test on HT29 colon and 0.0344 µM with CCRF-CEM leukemia.
